From EPA's ToxValDB 9.5 (doi:10.2903/j.efsa.2014.3677)
≈ marks a conversion by molar mass, not a printed value. Where “and” joins values, the source holds several entries; their conditions need not be identical. Equal values may be shown once.

Legend:
[1] = tested on: Typhlodromus pyri; test: LR50; higher = less toxic; conditions: not reported; mortality
[2] = tested on: Aphidius rhopalosiphi; test: LR50; higher = less toxic; conditions: not reported; mortality
[3] = tested on: Tagia sp.
[4] = tested on: Folsomia candida; conditions: chronic/long-term
[5] = tested on: Bibionidae; conditions: chronic/long-term; duration: 28 days
[6] = tested on: Hyalella azteca; conditions: acute; duration: 48 hours; mortality
[7] = tested on: Canidae; conditions: chronic; duration: 1 years; oral; Dog Other; clinical signs
[8] = tested on: Plant; conditions: not reported
[9] = tested on: Apis mellifera; conditions: acute, mortality
[10] = tested on: Pimephales promelas; conditions: chronic/long-term; duration: 300 days
[11] = tested on: Rattus norvegicus; conditions: reproduction developmental; body weight
[12] = tested on: Colinus virginianus; conditions: acute; oral; diet
[13] = tested on: Anas platyrhynchos
[14] = tested on: Neomysis kadiakensis; conditions: chronic/long-term; duration: 28 days
[15] = tested on: Leuciscus idus; conditions: acute; duration: 96 hours; mortality
[16] = tested on: Mus musculus; conditions: acute; oral

For CC1(C)[C@H](/C=C(\Cl)C(F)(F)F)[C@@H]1C(=O)O[C@@H](C#N)c1cccc(Oc2ccccc2)c1 [lambda-Cyhalothrin], which LR50 [1] is on record?
Its LR50 is 0.0037 g/ha.

And the LR50 [2]?
The LR50 was 1.06 g/ha.

What about the LC50 ([3]; acute, mortality) of the same molecule?
The LC50 was greater than 500 mg/kg.

What about the NOEC ([3]; chronic/long-term) of the same molecule?
Its NOEC is 3.12 mg/kg.

And the NOEC [4]?
The NOEC was 2.73 mg/kg.

And the NOEC [5]?
Its NOEC is 0.13 µg/L.

What about the LC50 [6] of the same molecule?
The LC50 was 0.0019 ng/mL (≈ 0.00422 nM).

And the NOAEL [7]?
Its NOAEL is 0.5 mg/kg-day.

What about the NOEC [8] of the same molecule?
Its NOEC is 7.5 g/ha.

And the LD50 ([9]; dermal)?
Its LD50 is 0.038 µg/piece.

What about the LD50 ([9]; oral, unspecified) of the same molecule?
Its LD50 is 0.91 µg/piece.

And the NOEC [10]?
Its NOEC is 0.031 µg/L.

And the NOAEL [11]?
Its NOAEL is 0.5 mg/kg-day and 0.25 mg/kg-day.

And the LD50 [12]?
Its LD50 is greater than 530 mg/kg-day.

And the LD50 ([13]; acute, oral, unspecified)?
The LD50 was 3950 mg/kg-day.

And the NOEC ([13]; reproductive)?
Its NOEC is 3.3 mg/kg-day.

And the NOEC [14]?
The NOEC was 0.00022 µg/L.

And the LC50 [15]?
Its LC50 is 0.078 ng/mL (≈ 0.173 nM).

What about the LD50 [16] of the same molecule?
The LD50 was 20 mg/kg-day.
